According to patent US20220204540A1, “ESTERS OF NON- AROMATIC HETEROCYCLIC COMPOUNDS HAVING A NEMATOCIDAL ACTIVITY, THEIR AGRONOMIC COMPOSITIONS AND USE THEREOF” (ISAGRO S.p.A., priority 2019, published 2022):

Tested on: Meloidogyne sp.
Assay: Nematocidal activity against Meloidogyne sp. on potted cucumber/tomato plants in greenhouse (soil treatment)
Format: in vivo
Details: for effectiveness with respect to the reference products (CR1, CR2), in words: Table 6, cucumber, 2 kg/hectare; for effectiveness with respect to the reference products (CR1, CR2), in words / FRESH WEIGHT OF PLANT: 30 days after transplantation; for GALL INDEX (scale 0-10) / FRESH WEIGHT OF PLANT: cucumber cv Chinese Long; for GALL INDEX (scale 0-10): dose applied 2 kg/hectare (2000 g/hectare), survey 30 days after transplantation, Bridge-Page scale, 0 = 0% of root affected, 10 = 100% infested root; for FRESH WEIGHT OF PLANT: dose applied 2 kg/hectare, healthy blank 23 g, infested blank 3.5 g
Method: sDetermination of the Nematocidal Activity Against Meloidogyne sp.
The tests aimed at testing the nematicidal activity of the product under examination were carried out using inoculae taken from a farming of Meloidogyne sp. maintained on potted tomato and cucumber plants and grown in greenhouses.
To carry out the experiments, portions of roots having a good number of galls and soil were taken from the infested pots, in which larvae were present starting from the second stage of age.
New pots having a diameter of 15 cm were half filled with sterile soil. The portions of infested roots, previously cleaned, were placed on the same in order to be able to correctly assess the degree of infestation and ensure that each pot contains the same nematic charge. 200-300 g of infested soil were subsequently added, then covered with a thin layer of sterile soil.
The treatment was carried out by pouring 100 ml of solution on the surface of the soil, in which the product to be tested was dissolved.
Tomato or cucumber seedlings at the stage of two or three true leaves were transplanted in the pots thus prepared, one or seven days after application. Different cultivars of tomato or cucumber were used, having a different sensitivity to the parasite and different growth times. In particular, a variety of ornamental tomatoes (cv Microtom), whose seedlings are small in size and are able to reach the ripeness of the fruit in pots and under greenhouse conditions in about two months, was used for assessing the final production.
The containment capacity of the parasite was detected, 30 and 60 days after transplantation, considering the development of the root system (where 100% is the development reached by the healthy comparative root), the fresh weight of the plants treated expressed in grams, and the presence of galls on the roots. The latter was estimated using the infestation scale proposed by Bridge-Page, according to which the value zero corresponds to 0% of the root affected and the value 10 corresponds to 100% of infested root.
Table 6 indicates the results relating to the effectiveness on cucumbers, cv Chinese Long, treating with Compounds Nr. 23, 620, 1, 13, 5, 15, 16, 624 and 625 included in general formula (I) and the reference compounds CR1=Fluensulfone and CR2, described in JP 2000038379, instead of the compound having general formula (I), at a dose of 2000 g/hectare and effecting the survey 30 days after transplantation.

| Compound | effectiveness with respect to the reference products (CR1, CR2), in words | GALL INDEX (scale 0-10) | FRESH WEIGHT OF PLANT |
| --- | --- | --- | --- |
| O=C(OCCC(F)=C(F)F)[C@@H]1CCCN1C(=O)C(F)(F)F [Compound 625, N-trifluoroacetyl-L-proline 3,4,4-triflluorobut-3-en-1-yl ester] | comparable or greater effectiveness | 2.5 | 22 g |
| CC(=O)N1C(C(=O)OCCC(F)=C(F)F)COC1(C)C(F)(F)F (stereo not shown) [Compound 16, (N-acetyl-2-trifluoromethyl-2-methyl)-1,3-oxazolidine-4-carboxylate of 3,4,4-trifluoro-3-butenyl] | comparable or greater effectiveness | 2.9 | 18 g |
| CC(=O)N1CCC[C@H]1C(=O)OCCC(F)=C(F)F [Compound 624, N-acetyl-L-proline 3,4,4-trifluorobut-3-en-1-yl ester] | comparable or greater effectiveness | 1.5 | 21 g |
| O=C(OCCC(F)=C(F)F)c1cccnc1 [CR2, pyridyl-3-carboxylate of 3,4,4-trifluoro-3-butenyl, reference compound] | – | 2.9 | 17.5 g |
| O=S(=O)(CCC(F)=C(F)F)c1ncc(Cl)s1 [CR1, 5-chloro-2-(3,4,4-trifluoro-3-butenylsulfonyl)-thiazole, reference compound] | – | 2 | 5.5 g |
| N-acetyl-1,3-thiadiazolidine-4-carboxylate of 3,4,4-trifluoro-3-butenyl [Compound 23] | comparable or greater effectiveness | 2 | 23 g |
